How the values were obtained:
sugar beet = assay: Test B pre/postemergence sugar beet; type: in vivo, Beta vulgaris
In short: (§1)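 Herbicidal effect was estimated by eye on a ten-point control scale after plants spent twelve to sixteen days in a greenhouse following soil or foliar treatment. Foliar sprays targeted plants at one to four leaves; all doses were formulated in a non-phytotoxic solvent with surfactant.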

soybean = assay: Test B pre/postemergence soybean; type: in vivo, Glycine max
In short: as §1

purple nutsedge = assay: Test B pre/postemergence purple nutsedge; type: in vivo, Cyperus rotundus
In short: as §1

rice = assay: Test B flood test rice; type: in vivo, Oryza sativa
In short: (§2)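 Read-out is a visual response score from 0 (no effect) to 10 (complete control), assigned by comparison with untreated controls. Treatment was applied at the 2-leaf stage, and plants stayed in the greenhouse for twelve to sixteen days before scoring.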

morningglory = assay: Test B pre/postemergence morningglory; type: in vivo, Ipomoea hederacea
In short: as §1

giant foxtail = assay: Test B pre/postemergence giant foxtail; type: in vivo, Setaria faberii
In short: as §1

cocklebur = assay: Test B pre/postemergence cocklebur; type: in vivo, Xanthium strumarium
In short: as §1

bamyardgrass = assay: Test B flood test barnyardgrass; type: in vivo, Echinochloa crus-galli
In short: as §2

pigweed = assay: Test B pre/postemergence pigweed; type: in vivo, Amaranthus retroflexus
In short: as §1

smallflower flatsedge = assay: Test B flood test smallflower flatsedge; type: in vivo, Cyperus difformis; conditions: for S. Flatsedge plant response rating: scale of 0 to 10 where 0 is no effect and 10 is complete control
In short: as §2

wild oat = assay: Test B pre/postemergence wild oat; type: in vivo, Avena fatua
In short: as §1

crabgrass = assay: Test B pre/postemergence crabgrass; type: in vivo, Digitaria sanguinalis
In short: as §1

corn = assay: Test B pre/postemergence corn; type: in vivo, Zea mays
In short: as §1

duck salad = assay: Test B flood test duck salad; type: in vivo, Heteranthera limosa
In short: as §2

rape = assay: Test B pre/postemergence rape; type: in vivo, Brassica napus
In short: as §1

surinam grass = assay: Test B pre/postemergence surinam grass; type: in vivo, Brachiaria decumbens
In short: as §1

[1] = Postemergence, Rate 125 g/ha, scale of 0 to 10 where 0 is no effect and 10 is complete control
[2] = Preemergence, Rate 31 g/ha, visual rating, scale 0 to 10 (0 no effect, 10 complete control)
[3] = Preemergence, Rate 62 g/ha, scale 0 to 10 (0 no effect, 10 complete control)
[4] = Preemergence, Rate 125 g/ha, 0 is no effect, 10 is complete control
[5] = Preemergence, Rate 250 g/ha, scale 0 to 10, 0 is no effect, 10 is complete control
[6] = Rate 62 g/ha, Postemergence, scale of 0 to 10 where 0 is no effect and 10 is complete control
[7] = Rate 250 g/ha, Postemergence, scale 0 to 10, 0 is no effect, 10 is complete control
[8] = Rate 31 g/ha, Postemergence, scale 0 to 10
[9] = Postemergence (flood test species), Rate 125 g/ha, scale of 0 to 10 where 0 is no effect and 10 is complete control
[10] = Rate 31 g/ha, Postemergence section (flood test species), scale 0 to 10
[11] = Rate 62 g/ha, Postemergence section, flood test species, scale of 0 to 10 where 0 is no effect and 10 is complete control
[12] = Rate 250 g/ha, Postemergence (flood test), scale 0 to 10, 0 is no effect, 10 is complete control

Cc1noc(C)c1-n1c(=O)on(C(=O)N(c2ccc(F)cc2F)C(C)C)c1=O [Compound 156]
Sugarbeets plant response rating (sugar beet; [1]): 0 | Sugarbeets plant response rating (sugar beet; [2]): 0 | Sugarbeets plant response rating (sugar beet; [3]): 0 | Sugarbeets plant response rating (0 to 10 scale) (sugar beet; [4]): 0 | Sugarbeets plant response rating (sugar beet; [5]): 0 | Sugarbeets plant response rating (sugar beet; [6]): 0 | Plant response rating, Sugarbeets (sugar beet; [7]): 0 | Soybean plant response rating (soybean; [1]): 1 | Soybean plant response rating (soybean; [2]): 0 | Soybean plant response rating (soybean; [3]): 0 | Soybean plant response rating (0 to 10 scale) (soybean; [4]): 0 | Soybean plant response rating (soybean; [5]): 0 | Soybean plant response rating (soybean; [6]): 1 | Plant response rating, Soybean (soybean; [7]): 1 | Nutsedge plant response rating (purple nutsedge; [1]): 0 | Nutsedge plant response rating (purple nutsedge; [2]): 0 | Nutsedge plant response rating (purple nutsedge; [3]): 0 | Nutsedge plant response rating (0 to 10 scale) (purple nutsedge; [4]): 0 | Nutsedge plant response rating (purple nutsedge; [5]): 0 | Nutsedge plant response rating (purple nutsedge; [8]): 0 | Nutsedge plant response rating (purple nutsedge; [6]): 0 | Plant response rating, Nutsedge (purple nutsedge; [7]): 0 | Rice plant response rating (rice; [9]): 0 | Rice plant response rating (rice; [10]): 0 | Rice plant response rating (rice; [11]): 0 | Plant response rating, Rice (rice; [12]): 0 | Morningglory plant response rating (morningglory; [1]): 1 | Morningglory plant response rating (morningglory; [2]): 0 | Morningglory plant response rating (morningglory; [3]): 0 | Morningglory plant response rating (0 to 10 scale) (morningglory; [4]): 0 | Morningglory plant response rating (morningglory; [5]): 0 | Morningglory plant response rating (morningglory; [8]): 0 | Morningglory plant response rating (morningglory; [6]): 0 | Plant response rating, Morningglory (morningglory; [7]): 2 | Giant foxtail plant response rating (giant foxtail; [1]): 0 | Giant foxtail plant response rating (giant foxtail; [2]): 0 | Giant foxtail plant response rating (giant foxtail; [3]): 0 | Giant foxtail plant response rating (0 to 10 scale) (giant foxtail; [4]): 2 | Giant foxtail plant response rating (giant foxtail; [5]): 7 | Giant foxtail plant response rating (giant foxtail; [8]): 0 | Giant foxtail plant response rating (giant foxtail; [6]): 0 | Plant response rating, Giant foxtail (giant foxtail; [7]): 0 | Cocklebur plant response rating (cocklebur; [1]): 0 | Cocklebur plant response rating (cocklebur; [2]): 0 | Cocklebur plant response rating (cocklebur; [3]): 0 | Cocklebur plant response rating (0 to 10 scale) (cocklebur; [4]): 0 | Cocklebur plant response rating (cocklebur; [5]): 0 | Cocklebur plant response rating (cocklebur; [8]): 0 | Cocklebur plant response rating (cocklebur; [6]): 0 | Plant response rating, Cocklebur (cocklebur; [7]): 0 | Barnyardgrass plant response rating (bamyardgrass; [9]): 0 | Barnyardgrass plant response rating (bamyardgrass; [10]): 0 | Barnyardgrass plant response rating (bamyardgrass; [11]): 0 | Plant response rating, Barnyardgrass (bamyardgrass; [12]): 0 | Redroot pigweed plant response rating (pigweed; [1]): 0 | Redroot pigweed plant response rating (pigweed; [2]): 0 | Redroot pigweed plant response rating (pigweed; [3]): 0 | Redroot pigweed plant response rating (0 to 10 scale) (pigweed; [4]): 4 | Redroot pigweed plant response rating (pigweed; [5]): 9 | Redroot pigweed plant response rating (pigweed; [8]): 0 | Redroot pigweed plant response rating (pigweed; [6]): 0 | Plant response rating, Redroot pigweed (pigweed; [7]): 0 | S. Flatsedge plant response rating (smallflower flatsedge; Postemergence (flood test species), Rate 125 g/ha): 0 | S. Flatsedge plant response rating (smallflower flatsedge; Rate 62 g/ha, Postemergence section, flood test species): 0 | Plant response rating, S. Flatsedge (smallflower flatsedge; [12]): 0 | Wild oats plant response rating (wild oat; [2]): 0 | Wild oats plant response rating (wild oat; [3]): 0 | Wild oats plant response rating (0 to 10 scale) (wild oat; [4]): 0 | Wild oats plant response rating (wild oat; [5]): 0 | Wild oats plant response rating (wild oat; [6]): 0 | Plant response rating, Wild oats (wild oat; [7]): 0 | Crabgrass plant response rating (crabgrass; [1]): 0 | Crabgrass plant response rating (crabgrass; [2]): 0 | Crabgrass plant response rating (crabgrass; [3]): 0 | Crabgrass plant response rating (0 to 10 scale) (crabgrass; [4]): 4 | Crabgrass plant response rating (crabgrass; [5]): 6 | Crabgrass plant response rating (crabgrass; [8]): 0 | Crabgrass plant response rating (crabgrass; [6]): 0 | Plant response rating, Crabgrass (crabgrass; [7]): 0 | Corn plant response rating (corn; [1]): 0 | Corn plant response rating (corn; [2]): 0 | Corn plant response rating (corn; [3]): 0 | Corn plant response rating (0 to 10 scale) (corn; [4]): 0 | Corn plant response rating (corn; [5]): 0 | Corn plant response rating (corn; [8]): 0 | Corn plant response rating (corn; [6]): 0 | Plant response rating, Corn (corn; [7]): 0 | Ducksalad plant response rating (duck salad; [9]): 0 | Ducksalad plant response rating (duck salad; [10]): 0 | Ducksalad plant response rating (duck salad; [11]): 0 | Plant response rating, Ducksalad (duck salad; [12]): 0 | Rape plant response rating (rape; [1]): 0 | Rape plant response rating (rape; [2]): 0 | Rape plant response rating (rape; [3]): 0 | Rape plant response rating (0 to 10 scale) (rape; [4]): 0 | Rape plant response rating (rape; [5]): 0 | Rape plant response rating (rape; [8]): 0 | Rape plant response rating (rape; [6]): 0 | Plant response rating, Rape (rape; [7]): 0 | B. signalgrass plant response rating (surinam grass; [1]): 0 | B. signalgrass plant response rating (surinam grass; [2]): 0 | B. signalgrass plant response rating (surinam grass; [3]): 0 | B. signalgrass plant response rating (0 to 10 scale) (surinam grass; [4]): 0 | B. signalgrass plant response rating (surinam grass; [5]): 2 | B. signalgrass plant response rating (surinam grass; [8]): 0 | B. signalgrass plant response rating (surinam grass; [6]): 0 | Plant response rating, B. signalgrass (surinam grass; [7]): 0
